The compounds below were run against hBTK (full-length BTK, 6HIS-tag cleaved) (Homo sapiens (Human), UniProt Q06187) (assay: BTK enzymatic activity, LANCE TR-FRET assay (Assay Method C)). Settings: LANCE TR-FRET, 50 pM hBTK, 25 μM ATP; class 100-1000 is given as ≧100 nM-<1 μM; read-out: IC50 Btk activity values - Assay Method C.
Assay type: biochemical

hBTK (full-length BTK, 6HIS-tag cleaved), sequence (Q06187 whole entry): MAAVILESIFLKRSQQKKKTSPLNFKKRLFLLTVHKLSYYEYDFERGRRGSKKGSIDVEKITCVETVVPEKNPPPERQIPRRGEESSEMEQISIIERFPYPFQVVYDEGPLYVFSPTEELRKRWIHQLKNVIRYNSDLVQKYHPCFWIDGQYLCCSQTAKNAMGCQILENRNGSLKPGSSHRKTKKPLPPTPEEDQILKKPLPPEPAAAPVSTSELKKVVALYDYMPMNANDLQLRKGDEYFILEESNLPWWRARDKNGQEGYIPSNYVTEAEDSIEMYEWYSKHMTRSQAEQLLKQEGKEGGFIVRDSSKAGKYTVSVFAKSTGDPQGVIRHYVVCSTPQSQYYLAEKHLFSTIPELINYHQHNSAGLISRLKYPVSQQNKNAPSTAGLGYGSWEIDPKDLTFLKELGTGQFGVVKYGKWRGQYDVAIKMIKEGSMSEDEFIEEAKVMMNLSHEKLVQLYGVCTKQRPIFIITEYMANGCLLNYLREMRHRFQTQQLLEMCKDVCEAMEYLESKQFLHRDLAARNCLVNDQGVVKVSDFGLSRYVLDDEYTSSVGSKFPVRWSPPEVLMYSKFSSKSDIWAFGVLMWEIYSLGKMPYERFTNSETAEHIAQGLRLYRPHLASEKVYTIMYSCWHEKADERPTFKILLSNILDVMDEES

SMILES	IC50
Cc1cc(NC(=O)c2ccc(-c3nc([C@@H]4CCCN(C(=O)C5(C)COC5)C4)n4ccnc(N)c34)cc2)ncc1F [Example 360, 4-(8-amino-3-{(3R)-1-[(3-methyloxetan-3-yl)carbonyl]piperidin-3-yl}imidazo[1,5-a]pyrazin-1-yl)-N-(5-fluoro-4-methylpyridin-2-yl)benzamide]	< 10 nM
COc1ccnc(NC(=O)c2ccc(-c3nc([C@@H]4CCCN(C(=O)C5(C)COC5)C4)n4ccnc(N)c34)cc2)n1 [Example 361, 4-(8-amino-3-{(3R)-1-[(3-methyloxetan-3-yl)carbonyl]piperidin-3-yl}imidazo[1,5-a]pyrazin-1-yl)-N-(4-methoxypyrimidin-2-yl)benzamide]	100 to 1000 nM
CCc1ccnc(NC(=O)c2ccc(-c3nc([C@@H]4CCCN(C(=O)C5(C)COC5)C4)n4ccnc(N)c34)cc2)c1 [Example 362, 4-(8-amino-3-{(3R)-1-[(3-methyloxetan-3-yl)carbonyl]piperidin-3-yl}imidazo[1,5-a]pyrazin-1-yl)-N-(4-ethylpyridin-2-yl)benzamide]	< 10 nM
CC1(C(=O)N2CCC[C@@H](c3nc(-c4ccc(C(=O)Nc5ncc6c(n5)CCC6)cc4)c4c(N)nccn34)C2)COC1 [Example 364, 4-(8-amino-3-{(3R)-1-[(3-methyloxetan-3-yl)carbonyl]piperidin-3-yl}imidazo[1,5-a]pyrazin-1-yl)-N-(6,7-dihydro-5H-cyclopenta[d]pyrimidin-2-yl)benzamide]	10 to 100 nM
Cn1ccc(NC(=O)c2ccc(-c3nc([C@@H]4CCCN(C(=O)C5(C)COC5)C4)n4ccnc(N)c34)cc2)n1 [Example 365, 4-(8-amino-3-{(3R)-1-[(3-methyloxetan-3-yl)carbonyl]piperidin-3-yl}imidazo[1,5-a]pyrazin-1-yl)-N-(1-methyl-1H-pyrazol-3-yl)benzamide]	10 to 100 nM
Cc1cnc(NC(=O)c2ccc(-c3nc([C@@H]4CCCN(C(=O)C5(C)COC5)C4)n4ccnc(N)c34)cc2)s1 [Example 366, 4-(8-amino-3-{(3R)-1-[(3-methyloxetan-3-yl)carbonyl]piperidin-3-yl}imidazo[1,5-a]pyrazin-1-yl)-N-(5-methyl-1,3-thiazol-2-yl)benzamide]	< 10 nM
Cc1nc(NC(=O)c2ccc(-c3nc([C@@H]4CCCN(C(=O)C5(C)COC5)C4)n4ccnc(N)c34)cc2)sc1C [Example 367, 4-(8-amino-3-{(3R)-1-[(3-methyloxetan-3-yl)carbonyl]piperidin-3-yl}imidazo[1,5-a]pyrazin-1-yl)-N-(4,5-dimethyl-1,3-thiazol-2-yl)benzamide]	< 10 nM
CC1(C(=O)N2CCC[C@@H](c3nc(-c4ccc(C(=O)Nc5ncns5)cc4)c4c(N)nccn34)C2)COC1 [Example 368, 4-(8-amino-3-{(3R)-1-[(3-methyloxetan-3-yl)carbonyl]piperidin-3-yl}imidazo[1,5-a]pyrazin-1-yl)-N-1,2,4-thiadiazol-5-ylbenzamide]	10 to 100 nM
CC1(C(=O)N2CCC[C@@H](c3nc(-c4ccc(C(=O)Nc5ncc(C(C)(C)C)s5)cc4)c4c(N)nccn34)C2)COC1 [Example 369, 4-(8-amino-3-{(3R)-1-[(3-methyloxetan-3-yl)carbonyl]piperidin-3-yl}imidazo[1,5-a]pyrazin-1-yl)-N-(5-tert-butyl-1,3-thiazol-2-yl)benzamide]	< 10 nM
CC1(C(=O)N2CCC[C@@H](c3nc(-c4ccc(C(=O)Nc5cnsc5)cc4)c4c(N)nccn34)C2)COC1 [Example 370, 4-(8-amino-3-{(3R)-1-[(3-methyloxetan-3-yl)carbonyl]piperidin-3-yl}imidazo[1,5-a]pyrazin-1-yl)-N-isothiazol-4-ylbenzamide]	10 to 100 nM
CCc1ccnc(NC(=O)c2ccc(-c3nc([C@@H]4CCCN(C(=O)C5(O)CC5)C4)n4ccnc(N)c34)cc2)c1 [Example 371, 4-(8-amino-3-{(3R)-1-[(1-hydroxycyclopropyl)carbonyl]piperidin-3-yl}imidazo[1,5-a]pyrazin-1-yl)-N-(4-ethylpyridin-2-yl)benzamide]	< 10 nM
CCC(=O)N1CCC[C@@H](c2nc(-c3ccc(C(=O)Nc4cc(OC)ccn4)cc3)c3c(N)nccn23)C1 [Example 372, 4-{8-amino-3-[(3R)-1-propanoylpiperidin-3-yl]imidazo[1,5-a]pyrazin-1-yl}-N-(4-methoxypyridin-2-yl)benzamide]	< 10 nM
CC1(C(=O)N2CCC[C@@H](c3nc(-c4ccc(C(=O)Nc5cc(C(F)(F)F)ccn5)cc4)c4c(N)ncc(C#N)n34)C2)COC1 [Example 373, (R)-4-(8-amino-5-cyano-3-(1-(3-methyloxetane-3-carbonyl)piperidin-3-yl)imidazo[1,5-a]pyrazin-1-yl)-N-(4-(trifluoromethyl)pyridin-2-yl)benzamide]	< 10 nM
CC1(C(=O)N2CCC[C@@H](n3nc(-c4ccc(C(=O)Nc5cc(C(F)(F)F)ccn5)cc4)c4c(N)nccc43)C2)COC1 [Example 381, 4-(4-amino-1-{(3R)-1-[(3-methyloxetan-3-yl)carbonyl]piperidin-3-yl}-1H-pyrazolo[4,3-c]pyridin-3-yl)-N-[4-(trifluoromethyl)pyridin-2-yl]benzamide]	< 10 nM
CC1(C(=O)N2CCC[C@@H](n3nc(-c4ccc(C(=O)Nc5cc(C(F)(F)F)ccn5)cc4)c4c(N)ncc(Cl)c43)C2)COC1 [Example 382, 4-(4-amino-7-chloro-1-{(3R)-1-[(3-methyloxetan-3-yl)carbonyl]piperidin-3-yl}-1H-pyrazolo[4,3-c]pyridin-3-yl)-N-[4-(trifluoromethyl)pyridin-2-yl]benzamide]	< 10 nM
COCC(=O)N1CCC[C@@H](n2nc(-c3ccc(C(=O)Nc4cc(C(F)(F)F)ccn4)cc3)c3c(N)nccc32)C1 [Example 383, 4-{4-amino-1-[(3R)-1-(methoxyacetyl)piperidin-3-yl]-1H-pyrazolo[4,3-c]pyridin-3-yl}-N-[4-(trifluoromethyl)pyridin-2-yl]benzamide]	< 10 nM
Nc1nccc2c1c(-c1ccc(C(=O)Nc3cc(C(F)(F)F)ccn3)cc1)nn2[C@@H]1CCCN(C(=O)C2CC2)C1 [Example 384, 4-{4-amino-1-[(3R)-1-(cyclopropylcarbonyl)piperidin-3-yl]-1H-pyrazolo[4,3-c]pyridin-3-yl}-N-[4-(trifluoromethyl)pyridin-2-yl]benzamide]	< 10 nM
CC(=O)N1CCC[C@@H](n2nc(-c3ccc(C(=O)Nc4cc(C(F)(F)F)ccn4)cc3)c3c(N)nccc32)C1 [Example 385, 4-{1-[(3R)-1-acetylpiperidin-3-yl]-4-amino-1H-pyrazolo[4,3-c]pyridin-3-yl}-N-[4-(trifluoromethyl)pyridin-2-yl]benzamide]	< 10 nM
CCc1ccnc(NC(=O)c2ccc(-c3nn([C@@H]4CCCN(C(=O)C5(C)COC5)C4)c4ccnc(N)c34)cc2)c1 [Example 386, 4-(4-amino-1-{(3R)-1-[(3-methyloxetan-3-yl)carbonyl]piperidin-3-yl}-1H-pyrazolo[4,3-c]pyridin-3-yl)-N-(4-ethylpyridin-2-yl)benzamide]	< 10 nM
Cc1ccnc(NC(=O)c2ccc(-c3nn([C@@H]4CCCN(C(=O)C5(C)COC5)C4)c4ccnc(N)c34)cc2)c1 [Example 387, 4-(4-amino-1-{(3R)-1-[(3-methyloxetan-3-yl)carbonyl]piperidin-3-yl}-1H-pyrazolo[4,3-c]pyridin-3-yl)-N-(4-methylpyridin-2-yl)benzamide]	< 10 nM

From patent US9718828B2 (MERCK SHARP & DOHME CORP., priority 2011, dated 2017)
